Reference: ChEMBL document CHEMBL5726630, “Inhibitors of human immunodeficiency virus replication” (2019)

Experiment: Biological Methods: HIV cell culture assay-MT-2 cells, 293T cells and the proviral DNA clone of NL4-3 virus were obtained from the NIH AIDS Research and Reference Reagent Program. MT-2 cells were propagated in RPMI 1640 media supplemented with 10% heat inactivated fetal bovine serum (FBS), 100 jag/ml penicillin G and up to 100 units/mL streptomycin. The 293T cells were propagated in DMEM media supplemented with 10% heat inactivated FBS, 100 μg/mL penicillin G and 100 μg/mL streptomycin. A recombinant NL4-3 proviral clone, in which a section of the nef gene was replaced with the Renilla luciferase gene, was used to make the reference virus used in these studies. The recombinant virus was prepared through transfection of the recombinant NL4-3 proviral clone into 293T cells using Transit-293 Transfection Reagent from Mirus Bio LLC (Madison, Wis.). Supernatant was harvested after 2-3 days and the amount of virus present was titered in MT-2 cells using luciferase enzyme activity as a marker by measuring luciferase enzyme activity. Luciferase was quantitated using the EnduRen Live Cell Substrate from Promega (Madison, Wis.). Antiviral activities of compounds toward the recombinant virus were quantified by measuring luciferase activity in MT-2 cells infected for 4-5 days with the recombinant virus in the presence of serial dilutions of the compound.
Format: cell-based

Compound	EC50 [nM]
C[C@H]1CCc2ccccc2N1S(=O)(=O)NC(=O)N[C@@H](Cc1cc(F)cc(F)c1)C(=O)N(C)c1ccc2scnc2c1	90
C[C@@H]1Cc2cccnc2N1S(=O)(=O)NC(=O)N[C@@H](Cc1cc(F)cc(F)c1)C(=O)N(C)c1ccc2scnc2c1	20
C[C@H]1Cc2cccnc2N1S(=O)(=O)NC(=O)N[C@@H](Cc1cc(F)cc(F)c1)C(=O)N(C)c1ccc2scnc2c1	50
C[C@@H]1CCc2ccccc2N1S(=O)(=O)NC(=O)N[C@@H](Cc1cc(F)cc(F)c1)C(=O)N(C)c1ccc2scnc2c1	100
CC1CN(S(=O)(=O)NC(=O)N[C@@H](Cc2cc(F)cc(F)c2)C(=O)N(C)c2ccc3scnc3c2)c2ncccc21 (single isomer, unassigned)	< 10
